Test results taken from patent EP1466611A1, “Use of HCG derived peptides in the treatment of iatrogenic diseases” (Biotempt B.V., priority 2003, dated 2004).
Ends that are not written are not given here.

Test system: NF-kB
Assay: NF-kB translocation by EMSA on nuclear extracts of RAW 264.7 mouse macrophages, basal and LPS induced (second experiment)
Format: cell-based
Settings: RAW264.7 cells, LPS in combination with peptide, 30 minutes of incubation, peptide 1 microgr/ml or 1 mg/ml
Protocol: RAW 264.7 mouse macrophages were cultured in DMEM, containing 10% or 2% FBS, penicillin, streptomycin and glutamine, at 37 °C, 5% CO2. […] After 30 minutes of incubation plates were centrifuged and cells were collected for nuclear extracts. Nuclear extracts and EMSA were prepared according to Schreiber et al. Cells were collected in a tube and centrifuged for 5 minutes at 2000 rpm (rounds per minute) at 4°C (Universal 30 RF, Hettich Zentrifuges). The pellet was washed with ice-cold Tris buffered saline (TBS pH 7.4) and resuspended in 400 μl of a hypotonic buffer A (10 mM HEPES pH 7.9, 10 mM KCl, 0.1 mM EDTA, 0.1 mM EGTA, 1 mM DTT, 0.5 mM PMSF and protease inhibitor cocktail (Complete^TM Mini, Roche) and left on ice for 15 minutes. Twenty five micro litre 10% NP-40 was added and the sample was centrifuged (2 minutes, 4000 rpm, 4°C). The supernatant (cytoplasmic fraction) was collected and stored at -70°C. […] The samples were left to shake at 4°C for at least 60 minutes. Finally the samples were centrifuged and the supernatant (nucleic fraction) was stored at -70°C. Bradford reagent (Sigma) was used to determine the final protein concentration in the extracts. […] Hundred pico mol sense and antisense oligo were annealed and labelled with […] using T4 polynucleotide kinase according to the manufacture's instructions (Promega, Madison, WI). […]

circular LQGVLPALPQVVC (also: circular / cyclised, mode of ring closure not given here) [NFkappaB down-regulating peptide]
LPS induced translocation of NF-kB: inhibition
